Active and inactive are the calls of the source.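 Rule for the calls: active = over half block of KCNK9 potassium channel current at 10 µM; inactive = the rest.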
Target: Potassium channel subfamily K member 9 (Homo sapiens) (UniProt Q9NPC2)
Assay: TASK3 channel blockers, electrophysiology – cell-based, automated electrophysiology, selectivity assay for TASK1 (KCNK3) inhibitor project, SAR follow-up (AID 652210)
Conditions: HEK293 inducible KCNK9, QPatch automated patch clamp

Chain of Potassium channel subfamily K member 9 (Homo sapiens) (Q9NPC2 whole entry, looked up): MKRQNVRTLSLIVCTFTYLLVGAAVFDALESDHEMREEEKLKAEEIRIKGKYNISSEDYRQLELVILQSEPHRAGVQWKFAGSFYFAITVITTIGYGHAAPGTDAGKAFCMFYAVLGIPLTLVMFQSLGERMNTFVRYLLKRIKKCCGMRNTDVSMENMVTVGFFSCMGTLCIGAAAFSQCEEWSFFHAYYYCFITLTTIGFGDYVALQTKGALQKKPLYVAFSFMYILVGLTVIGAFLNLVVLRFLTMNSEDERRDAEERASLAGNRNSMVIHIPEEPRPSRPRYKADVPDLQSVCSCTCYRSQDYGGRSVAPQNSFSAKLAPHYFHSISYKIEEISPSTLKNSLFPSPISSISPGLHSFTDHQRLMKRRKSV

| IC50 | Structure (SMILES) |
| --- | --- |
| 690 nM | Cc1cccc(C(=O)Nc2cccc(NC(=O)c3ccccc3)c2)c1 |
| inactive | Cc1cccc(C(=O)Nc2cccc(NC(=O)c3ccncc3)c2)c1 |
